Measurements: patent US20090123979A1, “Methods of reducing the inhibitory effect of a tannin on the enzymatic hydrolysis of cellulosic material” (Novozymes, Inc., priority 2007, published 2009)

What was measured:
[1] = tested on: T1, Cellulolytic Enzyme Composition #1; assay: AVICEL hydrolysis by Cellulolytic Enzyme Composition #1 with added compounds; assay type: biochemical, Trichoderma reesei
T1 construct: other: PASC hydrolysis; mean ± SD; 0.01 g enzyme; Dixon plot linear regression intercept (1/Rate); other: AVICEL; rate from hydrolysis difference (%) at 0 and 6 hours; rate from hydrolysis difference; fused on or other part: The A. oryzae beta-glucosidase is the mature chain secreted behind the Humicola insolens endoglucanase V signal peptide, which is cleaved off
Text: Initial hydrolysis rates were obtained from the first two hydrolysis time points (i.e., soluble sugar measurements) (with <20% hydrolysis extent in general, rate=(hydrolysis difference)/(time difference)). Double-reciprocal plots (1/(initial rate) vs 1/[cellulose] as function of tannic acid concentration) indicated a “mixed” type inhibition, but their complexity prevented extraction of simple inhibitor constants. Initial rate vs tannic acid concentration yielded an I50 (inhibitor concentration leading to 50% loss of hydrolysis rate) of 0.2±0.1 or 0.27±0.07 mM on PASC or AVICEL® hydrolysis, respectively
To examine where tannic acid exerted its inhibition, a series of hydrolysis reactions of AVICEL® by Cellulolytic Enzyme Composition #1 was performed in which AVICEL® and Cellulolytic Enzyme Composition #1 were used fresh or after pre-incubation with tannic acid. […] (with detectable precipitation seen), the pre-incubated Cellulolytic Enzyme Composition #1 was gel-filtered using BioSpin 6 desalting columns (Bio-Rad, Hercules, Calif., USA). […] Hydrolysis of untreated or buffer-only pre-incubated AVICEL® and Cellulolytic Enzyme Composition #1, with or without inhibitors, served as controls.

[2] = target: T2, Trichoderma reesei CEL5A endoglucanase II (Trichoderma reesei, UniProt P07982); assay: CMC hydrolysis by CEL5A endoglucanase II with tannic acid; assay type: biochemical; conditions: 1 mM tannic acid, 50° C., 4 hours
T2 construct: made in house
T2 sequence (P07982 22-418): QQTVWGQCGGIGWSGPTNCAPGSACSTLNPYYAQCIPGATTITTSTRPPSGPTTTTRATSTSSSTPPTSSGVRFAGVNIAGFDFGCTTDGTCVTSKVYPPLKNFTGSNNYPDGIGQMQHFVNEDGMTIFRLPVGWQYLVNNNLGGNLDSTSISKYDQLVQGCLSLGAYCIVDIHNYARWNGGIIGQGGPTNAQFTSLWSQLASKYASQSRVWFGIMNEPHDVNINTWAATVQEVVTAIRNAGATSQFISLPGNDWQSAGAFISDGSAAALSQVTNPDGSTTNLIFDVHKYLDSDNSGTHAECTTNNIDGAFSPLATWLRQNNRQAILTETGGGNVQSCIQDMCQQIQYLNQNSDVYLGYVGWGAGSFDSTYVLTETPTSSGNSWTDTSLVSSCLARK
Protocol: The effect of tannic acid on Trichoderma reesei CEL7B endoglucanase I and Trichoderma reesei CEL5A endoglucanase II was also evaluated using carboxymethylcellulose (CMC) as substrate. The hydrolysis reactions were conducted in duplicate using the “mini-plate-scale” hydrolysis procedure described in Example 33, except that 1 mM tannic acid and 10 to 20 g of carboxymethylcellulose (CMC) and 1 to 20 mg of enzyme per liter 50 mM sodium acetate pH 5.0 were used at 50° C. for 4 hours. Soluble reducing sugars were analyzed by a p-hydroxybenzoic acid hydrazide (PHBAH) assay according to the method of Lever, 1972, Anal. Biochem. 47: 273-279, instead of by HPLC as described in Examples 30 and 33. Reactions without the addition of the enzymes served as controls to correct background absorption. Spectrophotometric measurements were performed using a SPECTRAMAX™ 340PC reader (Molecular Devices Corp., Sunnyvale, Calif., USA) with COSTAR® 96-well microplates (Cole-Parmer Instrument Co, Vernon Hills, Ill., USA).

[3] = target: T3, Aspergillus oryzae CEL3A beta-glucosidase (Aspergillus oryzae, UniProt Q2UUD6); assay: Cellobiose hydrolysis by CEL3A beta-glucosidase with tannic acid; assay type: biochemical
T3 construct: made in house
T3 sequence (Q2UUD6 20-861): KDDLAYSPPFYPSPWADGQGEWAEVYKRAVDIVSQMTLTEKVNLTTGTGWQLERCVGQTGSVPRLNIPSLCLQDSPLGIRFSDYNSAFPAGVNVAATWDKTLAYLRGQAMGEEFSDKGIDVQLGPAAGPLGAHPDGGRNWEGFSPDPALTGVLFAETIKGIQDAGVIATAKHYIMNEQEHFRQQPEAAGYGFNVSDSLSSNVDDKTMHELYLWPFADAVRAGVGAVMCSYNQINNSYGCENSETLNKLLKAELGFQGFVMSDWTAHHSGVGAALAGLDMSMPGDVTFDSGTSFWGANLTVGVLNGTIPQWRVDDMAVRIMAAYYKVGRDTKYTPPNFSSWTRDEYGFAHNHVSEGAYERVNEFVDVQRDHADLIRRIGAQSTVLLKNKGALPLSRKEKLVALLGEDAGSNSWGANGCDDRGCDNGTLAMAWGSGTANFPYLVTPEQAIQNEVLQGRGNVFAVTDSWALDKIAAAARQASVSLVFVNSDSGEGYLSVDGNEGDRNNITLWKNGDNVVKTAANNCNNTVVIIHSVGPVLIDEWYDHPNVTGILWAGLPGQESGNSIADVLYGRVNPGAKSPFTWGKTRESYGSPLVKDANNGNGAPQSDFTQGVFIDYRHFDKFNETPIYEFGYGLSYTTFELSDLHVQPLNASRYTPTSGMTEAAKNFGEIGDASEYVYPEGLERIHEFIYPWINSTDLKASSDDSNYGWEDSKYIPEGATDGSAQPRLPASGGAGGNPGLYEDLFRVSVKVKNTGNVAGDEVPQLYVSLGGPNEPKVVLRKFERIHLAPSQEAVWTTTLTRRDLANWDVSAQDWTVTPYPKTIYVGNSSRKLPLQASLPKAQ
Protocol: The effect of tannic acid on Aspergillus oryzae CEL3A beta-glucosidase was also evaluated using a series of “mini-scale” hydrolysis reactions according to the procedure described in Example 30, except that 1 mM tannic acid (corresponding to 10 mM galloyl and 1 mM glucosyl constituents) and 2 g of cellobiose and 1 mg of beta-glucosidase per liter of 39 mM sodium acetate pH 5.0 were used. Reactions without the addition of the tannic acid served as controls. The reaction was monitored by HPLC as described in Example 30.
Tannic acid was also evaluated in the hydrolysis of cellobiose.

[4] = 25 g AVICEL, 0.25 g enzyme per liter, 1 mM tannic acid, or 5 mM ellagic acid or 10 mM methyl gallate plus 1 mM glucose pentaacetate
[5] = AVICEL, rate from hydrolysis difference (%) at 0 and 6 hours

Question: What does the source list for `O=C(OC[C@H]1O[C@@H](OC(=O)c2cc(O)c(O)c(OC(=O)c3cc(O)c(O)c(O)c3)c2)[C@H](OC(=O)c2cc(O)c(O)c(OC(=O)c3cc(O)c(O)c(O)c3)c2)[C@@H](OC(=O)c2cc(O)c(O)c(OC(=O)c3cc(O)c(O)c(O)c3)c2)[C@@H]1OC(=O)c1cc(O)c(O)c(OC(=O)c2cc(O)c(O)c(O)c2)c1)c1cc(O)c(O)c(OC(=O)c2cc(O)c(O)c(O)c2)c1` [tannic acid, Tannic acid]?
Answer: loss in initial rate of AVICEL hydrolysis [1, 4]: ~90%; loss in the extent of AVICEL hydrolysis at day 8 [1, 4]: ~70%; Ki ([1]; AVICEL hydrolysis, Cellulolytic Enzyme Composition #1, OPC in flavanone-equivalent subunits, read-out: inhibition constant Ki (x-intercept of Dixon plot)): ~130 µM; IC50 ([1]; AVICEL hydrolysis, 0.01 g enzyme per liter, pH 5.0, 50° C., read-out: I50 (inhibitor concentration leading to 50% loss of hydrolysis rate)): 270 ± 70 µM; Dixon plot linear regression intercept (1/Rate) [1, 5]: 0.045±0.017; Dixon plot linear regression slope (1/Rate vs inhibitor concentration) [1, 5]: 0.356±0.033; activity loss of pre-incubated Cellulolytic Enzyme Composition #1 ([1]; enzyme pre-incubated with 1 mM tannic acid 1 hour at 50° C., then gel-filtered): approximately 80%; concentration dependence of inhibition of AVICEL hydrolysis ([1]; tannic acid 0.05 mM to 1 mM, OPC 1 mM to 10 mM, 23 g AVICEL and 0.25 g enzyme per liter): increasingly inhibitory; effect on CMC hydrolysis by CEL5A endoglucanase II [2]: significantly inhibited; effect on cellobiose hydrolysis by CEL3A beta-glucosidase ([3]; 1 mM tannic acid, 2 g cellobiose and 1 mg beta-glucosidase per liter): significantly inhibited; type of inhibition, CEL3A beta-glucosidase ([3]; cellobiose hydrolysis): mixed; IC50 ([3]; cellobiose hydrolysis, 0.001 g enzyme per liter, pH 5, 50° C., read-out: I50 for CEL3A beta-glucosidase): ~800 µM
